System: IFN-γ producing T cells
Test: IFN-γ secretion (ELISA) of blood cells from mice vaccinated with TB10.4 antigens, stimulated with TB10.4 peptides
Format: in vivo
Settings: for specific T-cell response (IFN-γ secretion, ELISA) after vaccination with the individual peptide: mice vaccinated three times with individual TB10.4 peptide in DDA/TDB, cells stimulated with 0.5 μg/ml of the same peptide

| Molecule | specific T-cell response (IFN-γ secretion, ELISA) after vaccination with the individual peptide | T-cell recognition of TB10.4 peptides P1-P9 (IFN-γ secretion, ELISA) after vaccination (mice vaccinated 3 times at 2-week intervals in DDA/TDB, blood cells two weeks after final vaccination, stimulated with 0.5 μg/ml of individual peptides) |
| --- | --- | --- |
| TB10.4-P1: amino acids 1 to 18 of SEQ ID NO: 2 (MSQIMYNYPAMLGHAGDM; listed as Mycobacterium tuberculosis) | induced a specific T-cell response |  |
| TB10.4-P3: amino acids 21 to 38 of SEQ ID NO: 2 (YAGTLQSLGAEIAVEQAA; listed as Mycobacterium tuberculosis) | induced a specific T-cell response |  |
| TB10.4: protein expressed by M. tuberculosis, recombinant (SEQ ID NO: 2) (protein, listed as Mycobacterium tuberculosis, X not resolved here) MSQIMYNYPAMLGHAGDMAGYAGTLQSLGAEIAVEQAALQSAWQGDTGITYQAWQAQWNQAMEDLVRAYHAMSSTHEANTMAMMARDTAEAAKWGGX |  | mainly induced P3 specific T cells |

Reference: patent publication US20080008724A1 (Statens Serum Institute, priority 2006, published 2008)
